Results from patent US6407103B2, “Indeno [1,2-c] pyrazol-4-ones and their uses” (Bristol-Myers Squibb Pharma Company, priority 1998, dated 2002).

SMILES	melting point [°C]
CCOC(=O)c1ccc(-c2[nH]nc3c2C(=O)c2c(NC(=O)NN4CCN(C)CC4)cccc2-3)s1 [Example CXXII, 3-(5-carboethoxy-2-thienyl)-5-((4-methylpiperazino)carbamoylamino)indeno [1,2-c]pyrazol-4-one]	249
CN1CCN(NC(=O)Nc2cccc3c2C(=O)c2c-3n[nH]c2-c2ccc(C(=O)O)s2)CC1 [Example CXXIII, 3-(5-carboxyl-2-thienyl)-5-((4-methylpiperazino)carbamoylamino)indeno [1,2-c]pyrazol-4-one]	270
Cc1cc(-c2[nH]nc3c2C(=O)c2c(NC(=O)NN4CCN(C)CC4)cccc2-3)c(C)s1 [Example CXXIV, 3-(2,5-dimethyl-3-thienyl)-5-((4-methylpiperazino)carbamoylamino)indeno [1,2-c]pyrazol-4-one]	250
COc1ccc(-c2[nH]nc3c2C(=O)c2c(NC(C)=O)cccc2-3)cc1 [Example I, 3-(4-methoxyphenyl)-5-(acetamido)indeno[1,2-c]pyrazol-4-one]	268
COc1ccc(-c2[nH]nc3c2C(=O)c2c(NC(=O)C4CC4)cccc2-3)cc1 [Example III, 3-(4-methoxyphenyl)-5-(cyclopropanecarboxamido)indeno[1,2-c]pyrazol-4-one]	289
CCCC(=O)Nc1cccc2c1C(=O)c1c-2n[nH]c1-c1ccc(OC)cc1 [Example IX, 3-(4-methoxyphenyl)-5-(butanamido)indeno[1,2-c]pyrazol-4-one]	282
O=CNc1cccc2c1C(=O)c1c-2n[nH]c1-c1ccncc1 [Example L, 3-(4-pyridyl)-5-(formamido)indeno [1,2-c]pyrazol-4-one]	> 300
CN(C)c1ccc(-c2[nH]nc3c2C(=O)c2c(NC(=O)CN4CCOCC4)cccc2-3)cc1 [Example LV, 3-(4-(N,N-dimethylamino)phenyl)-5-(morpholinoacetamido)indeno[1,2-c]pyrazol-4-one]	> 300
CC(=O)Nc1cccc2c1C(=O)c1c-2n[nH]c1-c1ccc(N2CCOCC2)cc1 [Example LVIII, 3-(4-morpholinophenyl)-5-(acetamido)indeno[1,2-c]pyrazol-4-one]	> 300
CCc1ccc(-c2[nH]nc3c2C(=O)c2c(NC(C)=O)cccc2-3)cc1 [Example LXI, 3-(4-ethylphenyl)-5-(acetamido)indeno[1,2-c]pyrazol-4-one]	294
COc1ccc(-c2[nH]nc3c2C(=O)c2c(NC(N)=O)cccc2-3)cc1 [Example LXIII, 3-(4-methoxyphenyl)-5-(carbamoylamino)indeno[1,2-c]pyrazol-4-one]	> 300
CNC(=O)Nc1cccc2c1C(=O)c1c-2n[nH]c1-c1ccc(OC)cc1 [Example LXV, 3-(4-methoxyphenyl)-5-((methylcarbamoyl)amino)indeno[1,2-c]pyrazol-4-one]	> 300
COc1ccc(-c2[nH]nc3c2C(=O)c2c(NC(=O)NN4CCOCC4)cccc2-3)cc1 [Example LXVI, 3-(4-methoxyphenyl)-5-((morpholinocarbamoyl)amino)indeno[1,2-c]pyrazol-4-one]	> 300
COc1ccc(-c2[nH]nc3c2C(=O)c2c(NC(=O)NN4CCN(C)CC4)cccc2-3)cc1 [Example LXVIII, 3-(4-methoxyphenyl)-5-((4-methylpiperazinocarbamoyl)amino)indeno[1,2-c]pyrazol-4-one]	> 300
COc1ccc(-c2[nH]nc3c2C(=O)c2c(NC(=O)CN4CCN(c5ccccn5)CC4)cccc2-3)cc1 [Example LXX, 3-(4-methoxyphenyl)-5-(4-(2-pyridyl)piperazinoacetamido)indeno[1,2-c]pyrazol-4-one]	> 300
COc1ccc(-c2[nH]nc3c2C(=O)c2c(NC(=O)CN4CCN(CCN)CC4)cccc2-3)cc1 [Example LXXI, 3-(4-methoxyphenyl)-5-(4-(aminoethyl)piperazinoacetamido)indeno[1,2-c]pyrazol-4-one]	> 300
COc1ccc(-c2[nH]nc3c2C(=O)c2c(NC(=O)CN4CCC(C(N)=O)CC4)cccc2-3)cc1 [Example LXXII, 3-(4-methoxyphenyl)-5-(4-carbamoylpiperidinoacetamido)indeno[1,2-c]pyrazol-4-one]	> 300
COc1ccc(-c2[nH]nc3c2C(=O)c2c(NC(=O)CN4CCC(O)CC4)cccc2-3)cc1 [Example LXXIII, 3-(4-methoxyphenyl)-5-(4-hydroxypiperidinoacetamido)indeno[1,2-c]pyrazol-4-one]	> 300
CN1CCN(CC(=O)Nc2cccc3c2C(=O)c2c-3n[nH]c2-c2ccc(N(C)C)cc2)CC1 [Example LXXVIII, 3-(4-(dimethylamino)phenyl)-5-((4-methylpiperazino)acetamido)indeno[1,2-c]pyrazol-4-one]	> 300
CN(C)c1ccc(-c2[nH]nc3c2C(=O)c2c(NC(=O)CN4CCC(O)CC4)cccc2-3)cc1 [Example LXXX, 3-(4-(N,N-dimethylamino)phenyl)-5-(4-hydroxypiperidinoacetamido)indeno[1,2-c]pyrazol-4-one]	267
O=C(CN1CCOCC1)Nc1cccc2c1C(=O)c1c-2n[nH]c1-c1ccc(N2CCOCC2)cc1 [Example LXXXI, 3-(4-morpholinophenyl)-5-(morpholinoacetamido)indeno[1,2-c]pyrazol-4-one]	258
O=C(CN1CCC(O)CC1)Nc1cccc2c1C(=O)c1c-2n[nH]c1-c1ccc(N2CCOCC2)cc1 [Example LXXXIII, 3-(4-(4-morpholinyl)phenyl)-5-((4-hydroxy-1-piperidinyl)acetamido)indeno[1,2-c]pyrazol-4-one]	245
NCC1CCN(CC(=O)Nc2cccc3c2C(=O)c2c-3n[nH]c2-c2ccc(N3CCOCC3)cc2)CC1 [Example LXXXIV, 3-(4-morpholinophenyl)-5-(4-(aminomethyl)piperidinoacetamido)indeno[1,2-c]pyrazol-4-one]	240
CN1CCN(NC(=O)Nc2cccc3c2C(=O)c2c-3n[nH]c2-c2ccc(N(C)C)cc2)CC1 [Example LXXXV, 3-(4-(N,N-dimethylamino)phenyl)-5-(4-methylpiperazinocarbamoylamino)indeno[1,2-c]pyrazol-4-one]	> 300
COc1ccc(-c2[nH]nc3c2C(=O)c2c(NC(=S)NN4CCN(C)CC4)cccc2-3)cc1 [Example LXXXVI, 3-(4-methoxyphenyl)-5-((4-methylpiperazino)thionocarbamoylamino)indeno[1,2-c]pyrazol-4-one]	> 300
Cn1ccc(-c2[nH]nc3c2C(=O)c2c(NC(N)=O)cccc2-3)c1 [Example LXXXVIX, 3-(1-methyl-3-pyrrolyl)-5-(carbamoylamino)indeno[1,2-c]pyrazol-4-one]	269
CCC(=O)Nc1cccc2c1C(=O)c1c-2n[nH]c1-c1ccc(OC)cc1 [Example V, 3-(4-methoxyphenyl)-5-(propanamido)indeno[1,2-c]pyrazol-4-one]	287
COc1ccc(-c2[nH]nc3c2C(=O)c2c(NC(=O)C4CCCC4)cccc2-3)cc1 [Example VI, 3-(4-methoxyphenyl)-5-(cyclopentanecarboxamido)indeno[1,2-c]pyrazol-4-one]	267
